“And” between values parts separate entries of the source, which are not always exact repeats. Identical values can stand only once.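 48-hour exposure; five concentrations; linearly interpolated endpoints. Here, GI50 denotes the concentration required for 50% inhibition of growth. TGI: total growth inhibition.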
How the values were obtained:
Experiment in all cases: NCI anticancer screen, dose series, 48 h; in the data active = GI50 below about 0.43 µM; inactive = the rest
[1] = system: SK-MEL-28 melanoma
[2] = system: BT-549 breast
[3] = system: OVCAR-5 ovarian
[4] = system: SR leukemia
[5] = system: SF-295 CNS
[6] = system: HOP-92 NSCLC
[7] = system: HS 578T breast
[8] = system: NCI/ADR-RES ovarian
[9] = system: RPMI-8226 leukemia
[10] = system: K-562 leukemia
[11] = system: MDA-MB-435
[12] = system: NCI-H522 lung
[13] = system: T-47D breast
[14] = system: UACC-62 melanoma
[15] = system: NCI-H23 lung
[16] = system: MOLT-4 leukemia
[17] = system: HCT-116 colon
[18] = system: SF-539 CNS
[19] = system: A549 NSCLC
[20] = system: SW-620 colon
[21] = system: CCRF-CEM leukemia
[22] = system: KM12 colon
[23] = system: HOP-62 NSCLC
[24] = system: IGROV1 ovarian
[25] = system: HCC-2998 colon
[26] = system: OVCAR-8 ovarian
[27] = system: OVCAR-4 ovarian
[28] = system: MDA-MB-231 breast
[29] = system: M14 melanoma
[30] = system: SN12C renal
[31] = system: HCT-15 colon
[32] = system: EKVX NSCLC
[33] = system: SNB-19 CNS
[34] = system: 786-0 renal
[35] = system: U251 CNS
[36] = system: SK-MEL-5 melanoma
[37] = system: ACHN renal
[38] = system: UO-31 renal
[39] = system: UACC-257 melanoma
[40] = system: MCF7 breast
[41] = system: COLO 205 colon
[42] = system: HT29 colon
[43] = system: DU-145 prostate
[44] = system: OVCAR-3 ovarian
[45] = system: LOX IMVI melanoma
[46] = system: NCI-H460 lung
[47] = system: CAKI-1 renal
[48] = system: A498 renal
[49] = system: SF-268 CNS
[50] = system: PC-3 prostate
[51] = system: MALME-3M melanoma
[52] = system: SK-OV-3 ovarian
[53] = system: SNB-75 CNS
[54] = system: NCI-H226 lung
[55] = system: TK-10 renal
[56] = system: RXF 393 renal
[57] = system: SK-MEL-2 melanoma

COc1ccc(/C=C2\c3cc(OC)c(OC)c(OC)c3CC[C@@H]2O)cc1F
42.7 µM: TGI [2]
17.2 µM: TGI [36]
active: GI50 [4] 0.0899 µM | GI50 [5] 0.222 µM | GI50 [7] 0.299 µM | GI50 [8] 0.196 µM | GI50 [10] 0.0865 µM | GI50 [11] 0.0399 µM | GI50 [12] 0.156 µM | GI50 [13] 0.36 µM | GI50 [14] 0.283 µM | GI50 [15] 0.318 µM | GI50 [17] 0.331 µM | GI50 [18] 0.272 µM | GI50 [20] 0.246 µM | GI50 [22] 0.373 µM | GI50 [23] 0.245 µM | GI50 [29] 0.274 µM | GI50 [31] 0.19 µM | GI50 [36] 0.234 µM | GI50 [40] 0.088 µM | GI50 [43] 0.322 µM | GI50 [44] 0.262 µM | GI50 [45] 0.395 µM | GI50 [46] 0.299 µM | GI50 [47] 0.391 µM | GI50 [48] 0.152 µM | GI50 [51] 0.261 µM | GI50 [52] 0.306 µM
93.4 µM: TGI [26]
0.235 µM: TGI [11]
89.9 µM: TGI [38]
61.1 µM: TGI [52]
0.697 µM: TGI [48]
48.6 µM: TGI [45]
> 100 µM: TGI [1] | TGI [3] | TGI [4] | TGI [5] | TGI [6] | TGI [7] | TGI [9] | TGI [10] | TGI [13] | TGI [14] | TGI [15] | TGI [16] | TGI [17] | TGI [19] | TGI [20] | TGI [21] | TGI [22] | TGI [23] | TGI [24] | TGI [27] | TGI [28] | TGI [29] | TGI [30] | TGI [31] | TGI [32] | TGI [33] | TGI [34] | TGI [37] | TGI [39] | TGI [40] | TGI [43] | TGI [44] | TGI [47] | TGI [49] | TGI [50] | TGI [51]
16.9 µM: TGI [46]
7.59 µM: TGI [41]
80.2 µM: TGI [25]
0.917 µM: TGI [18]
inactive: GI50 [1] 7.54 µM | GI50 [2] 0.443 µM | GI50 [3] 10.4 µM | GI50 [6] 25 µM | GI50 [9] 1.82 µM | GI50 [16] 0.956 µM | GI50 [19] 0.693 µM | GI50 [21] 0.815 µM | GI50 [24] 0.812 µM | GI50 [25] 0.809 µM | GI50 [26] 0.598 µM | GI50 [27] 1.1 µM | GI50 [28] 0.958 µM | GI50 [30] 0.949 µM | GI50 [32] 0.823 µM | GI50 [33] 0.855 µM | GI50 [34] 0.492 µM | GI50 [35] 0.469 µM | GI50 [37] 0.815 µM | GI50 [38] 0.534 µM | GI50 [39] > 100 µM | GI50 [41] 1.03 µM | GI50 [42] 1.36 µM | GI50 [49] 0.748 µM | GI50 [50] 0.474 µM
0.639 µM: TGI [12]
13.4 µM: TGI [42]
1.31 µM: TGI [8]
33.2 µM: TGI [35]

COc1cc2c[n+](C)c3c4cc(OC)c(OC)cc4ccc3c2cc1OC
inactive: GI50 [53] > 100 µM and 31.6 µM | GI50 [7] > 100 µM and 10.3 µM | GI50 [8] > 100 µM | GI50 [13] > 100 µM and 10.1 µM | GI50 [15] 40.8 µM and 19.5 µM | GI50 [18] 71.3 µM and 29.9 µM | GI50 [22] > 100 µM and 33.3 µM | GI50 [26] 32.9 µM and 15 µM | GI50 [28] > 100 µM and 18.6 µM | GI50 [30] 30.4 µM and 3.98 µM | GI50 [33] 80 µM and 13.5 µM | GI50 [35] 14.3 µM and 7.05 µM | GI50 [56] > 100 µM and 28.5 µM | GI50 [40] 35.6 µM and 8.35 µM | GI50 [46] > 100 µM and 49.8 µM | GI50 [49] 22.6 µM and 3.32 µM | GI50 [51] > 100 µM and 21.7 µM
42.8 µM and 39.9 µM: TGI [41]
> 100 µM: TGI [1] | TGI [2] | TGI [3] | TGI [5] | TGI [7] | TGI [8] | TGI [9] | TGI [10] | TGI [11] | TGI [13] | TGI [14] | TGI [16] | TGI [17] | TGI [18] | TGI [19] | TGI [20] | TGI [21] | TGI [22] | TGI [23] | TGI [54] | TGI [25] | TGI [26] | TGI [27] | TGI [28] | TGI [29] | TGI [30] | TGI [31] | TGI [55] | TGI [32] | TGI [33] | TGI [34] | TGI [35] | TGI [36] | TGI [37] | TGI [38] | TGI [56] | TGI [39] | TGI [40] | TGI [42] | TGI [43] | TGI [44] | TGI [45] | TGI [57] | TGI [46] | TGI [47] | TGI [48] | TGI [50] | TGI [51] | TGI [52]
> 100 µM and 37.6 µM: TGI [49]
> 100 µM and 98.9 µM: TGI [53]
42.2 µM: TGI [12]
97.7 µM: TGI [24]
> 100 µM and 77 µM: TGI [15]

— PubChem BioAssay (NCI)
